tested on: swine adipose tissue; assay: inhibition of lipogenesis (lipid synthesis from radioactive glucose) in slices of swine adipose tissue; format: cell-based; conditions: 100 micrograms per milliliter test compound; 37° C., 2 hours; glucose-U^14 C; 300 microunits of insulin; 5% DMSO; triplicate
Text: The manner in which they cause this effect is not known with certainty; it is believed that they interfere with the synthesis of fatty acids in the tissues. Their effectiveness for this purpose has been ascertained by immersing samples of swine adipose tissue in a liquid medium containing radioactive glucose and the test chemical for a period of time, then isolating the lipid from the treated tissue and determining the up-take of the radioactive carbon by means of scintillation counting techniques. These tests were conducted in swine adipose tissue because in swine, the primary site of lipogenesis--i.e., fatty acid synthesis--appears to be adipose tissue.
Described in more detail, the tests were conducted according to the following general procedure:
150 milligrams of slices of swine adipose tissue were incubated at 37° C. for 2 hours with shaking in 3 milliliters of Krebs-Ringer bicarbonate solution containing one-half of the normal calcium ion concentration, 60 micromoles of glucose, 0.5 micro-Curie of glucose-U^14 C, and 300 microunits of insulin, and 5% dimethyl sulfoxide (DMSO). The test compound was added as a solution or suspension in DMSO and was present as a concentration of 100 micrograms per milliliter of incubation mixture.
The incubation was terminated by addition of 0.25 milliliter of 1 N sulfuric acid. The resulting mixture was extracted with a total of 25 milliliters of chloroform:methanol (2:1, v/v). The extracts were washed according to Folch et al. (J. Biol. Chem., 226, 497-509, (1957)), air dried, and counted in a liquid scintillation counter with 15 milliliters of counting fluid (two parts toluene containing 0.4% w/v New England Nuclear Omnifluor: 1 part Triton X-100). The tests were conducted in triplicate and were accompanied by control tests in which all ingredients,proportions and conditions were the same except that no test compound was included. From the data obtained were calculated the percent inhibition of lipid synthesis by the test compound. The data obtained are reported as the percent inhibition of lipogenesis compared to the results obtained in the control tests wherein only the test compound was omitted.

SMILES	Percent Inhibition (of lipogenesis compared to control tests) [%]
C=CCNC(=O)C1Cc2cc(Cc3ccccc3)ccc2O1 (stereo not shown) [Compound 4]	64
C=CCNC(=O)C1Cc2cc(-c3ccc(C(C)O)cc3)ccc2O1 (stereo not shown) [Compound 6, 2,3-Dihydro-5-(4-(1-hydroxyethyl)phenyl)-N-(2-propenyl)-2-benzofurancarboxamide]	40
C=CCNC(=O)C1Cc2cc(-c3ccccc3)ccc2O1 (stereo not shown) [Compound 1, 2,3-dihydro-5-phenyl-N-(2-propenyl)-2-benzofurancarboxamide]	59
C=CCNC(=O)C1Cc2c(Oc3ccccc3)cccc2O1 (stereo not shown) [Compound 5]	77
C=CCNC(=O)C1Cc2cc(C3CCCCC3)ccc2O1 (stereo not shown) [Compound 3]	43
C=CCNC(=O)C1Cc2cc(C(C)CC)ccc2O1 (stereo not shown) [Compound 2]	66
C=CCNC(=O)C1Cc2cc(-c3ccc(NC(C)=O)cc3)ccc2O1 (stereo not shown) [Compound 7, 5-(4-(Acetylamino)phenyl)-2,3-dihydro-N-(2-propenyl)-2-benzofurancarboxamide]	76
